Measurements: patent publication US8431593B2, “Heteroaryl amide derivatives” (H. Lundbeck A/S, priority 2006, dated 2013)

Target: T1, P2X7 receptor (Homo sapiens, UniProt Q99572)
T1 construct: host or cells: SH-SY5Y
T1 sequence (Q99572 1-595): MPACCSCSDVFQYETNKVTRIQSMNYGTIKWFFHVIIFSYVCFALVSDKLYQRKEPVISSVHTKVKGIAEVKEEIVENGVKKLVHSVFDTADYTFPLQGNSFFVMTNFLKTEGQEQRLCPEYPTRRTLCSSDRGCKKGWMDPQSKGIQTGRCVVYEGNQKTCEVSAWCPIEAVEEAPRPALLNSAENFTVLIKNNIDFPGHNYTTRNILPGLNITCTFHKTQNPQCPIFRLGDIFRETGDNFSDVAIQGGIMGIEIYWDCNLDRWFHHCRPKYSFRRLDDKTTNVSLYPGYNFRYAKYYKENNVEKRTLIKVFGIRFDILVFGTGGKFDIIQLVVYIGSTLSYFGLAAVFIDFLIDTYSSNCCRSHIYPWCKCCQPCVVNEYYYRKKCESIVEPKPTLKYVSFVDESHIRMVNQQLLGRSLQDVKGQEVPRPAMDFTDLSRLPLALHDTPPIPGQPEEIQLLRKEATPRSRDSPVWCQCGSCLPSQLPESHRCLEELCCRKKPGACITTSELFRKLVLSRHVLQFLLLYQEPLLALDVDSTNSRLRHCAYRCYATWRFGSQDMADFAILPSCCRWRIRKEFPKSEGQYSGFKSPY
Test: P2X7 calcium mobilization assay, high throughput, antagonist activity (Example 4A)
Format: cell-based
Details: not given
Summary of the method: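 Cells plated 100,000/well the day before; after 1 h dye loading and one rinse, cells were preincubated 1 h at room temperature with test compound. Calcium mobilization then read on FLIPR^TETRA; maximum RFU corrected by subtracting mean no-agonist response and referenced to mean agonist-control maximum.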

SMILES	IC50
CCOC(=O)Cc1cn2c(NC(=O)CC34CC5CC(CC(C5)C3)C4)cccc2n1 [Compound 145, ethyl {5-[(adamantan-1-ylacetyl)amino]imi-dazo[1,2-a]pyridin-2-yl}acetate]	< 2000 nM
CCCNC(=O)Cc1cn2c(C(=O)NCC34CC5CC(CC(C5)C3)C4)cccc2n1 [Compound 146, N-(adamantan-1-ylmethyl)-2-[2-oxo-2-(propylamino)ethyl]imi-dazo[1,2-a]pyridine-5-carboxamide]	< 2000 nM
O=C(Cc1cn2c(C(=O)NCC34CC5CC(CC(C5)C3)C4)cccc2n1)NCC1CCCO1 (stereo not shown) [Compound 157, N-(adamantan-1-ylmethyl)-2-{2-oxo-2-[(tetrahydrofuran-2-ylmethyl)amino]ethyl}imi-dazo[1,2-a]pyridine-5-carboxamide]	< 2000 nM

Same assay, conditions: SH-SY5Y cells; 50% decrease in fluorescence response to 80 μM BzATP; read-out: IC50

IC50	SMILES
< 2000 nM	O=C(Cc1cn2c(C(=O)NCC34CC5CC(CC(C5)C3)C4)cccc2n1)NCC1CC1 [Compound 147, N-(adamantan-1-ylmethyl)-2-{2-[(cyclopropylmeth-yl)amino]-2-oxoethyl}imidazo[1,2-a]pyridine-5-carboxamide]
< 2000 nM	O=C(Cc1cn2c(C(=O)NCC34CC5CC(CC(C5)C3)C4)cccc2n1)NC1CC1 [Compound 148, N-(adamantan-1-ylmethyl)-2-[2-(cyclopropylamino)-2-oxoethyl]imidazo[1,2-a]pyridine-5-carboxamide]
< 2000 nM	O=C(Cc1cn2c(C(=O)NCC34CC5CC(CC(C5)C3)C4)cccc2n1)NC1CCCCC1 [Compound 149, N-(adamantan-1-ylmethyl)-2-[2-(cyclohexylamino)-2-oxoethyl]imidazo[1,2-a]pyridine-5-carboxamide]
< 2000 nM	CC(C)NC(=O)Cc1cn2c(C(=O)NCC34CC5CC(CC(C5)C3)C4)cccc2n1 [Compound 150, N-(adamantan-1-ylmethyl)-2-[2-(isopropylamino)-2-oxoethyl]imidazo[1,2-a]pyridine-5-carboxamide]
< 2000 nM	O=C(Cc1cn2c(C(=O)NCC34CC5CC(CC(C5)C3)C4)cccc2n1)NC1CCC1 [Compound 151, N-(adamantan-1-ylmethyl)-2-[2-(cyclobutylamino)-2-oxoethyl]imidazo[1,2-a]pyridine-5-carboxamide]
< 2000 nM	CCC(C)NC(=O)Cc1cn2c(C(=O)NCC34CC5CC(CC(C5)C3)C4)cccc2n1 (stereo not shown) [Compound 152, N-(adamantan-1-ylmethyl)-2-[2-(sec-butylamino)-2-oxoethyl]imidazo[1,2-a]pyridine-5-carboxamide]
< 2000 nM	O=C(Cc1cn2c(C(=O)NCC34CC5CC(CC(C5)C3)C4)cccc2n1)NC1CCCC1 [Compound 153, N-(adamantan-1-ylmethyl)-2-[2-(cyclopentylamino)-2-oxoethyl]imidazo[1,2-a]pyridine-5-carboxamide]
< 2000 nM	CC(C)(C)CNC(=O)Cc1cn2c(C(=O)NCC34CC5CC(CC(C5)C3)C4)cccc2n1 [Compound 154, N-(adamantan-1-ylmethyl)-2-{2-[(2,2-dimethylpropyl)amino]-2-oxoethyl}imidazo[1,2-a]pyridine-5-carboxamide]
< 2000 nM	CCOCCNC(=O)Cc1cn2c(C(=O)NCC34CC5CC(CC(C5)C3)C4)cccc2n1 [Compound 155, N-(adamantan-1-ylmethyl)-2-{2-[(2-ethoxyethyl)amino]-2-oxoethyl}imidazo[1,2-a]pyridine-5-carboxamide]
< 2000 nM	CC(C)OCCNC(=O)Cc1cn2c(C(=O)NCC34CC5CC(CC(C5)C3)C4)cccc2n1 [Compound 156, N-(adamantan-1-ylmethyl)-2-{2-[(2-isopropoxyethyl)amino]-2-oxoethyl}imidazo[1,2-a]pyridine-5-carboxamide]
< 2000 nM	O=C(Cc1cn2c(C(=O)NCC34CC5CC(CC(C5)C3)C4)cccc2n1)NCC(F)(F)F [Compound 158, N-(adamantan-1-ylmethyl)-2-{2-oxo-2-[(2,2,2-trifluoroethyl)amino]eth-yl}imidazo[1,2-a]pyridine-5-carboxamide]
< 2000 nM	CCCOCCNC(=O)Cc1cn2c(C(=O)NCC34CC5CC(CC(C5)C3)C4)cccc2n1 [Compound 159, N-(adamantan-1-ylmethyl)-2-{2-oxo-2-[(2-propoxyethyl)amino]eth-yl}imidazo[1,2-a]pyridine-5-carboxamide]
< 2000 nM	CCC(COC)NC(=O)Cc1cn2c(C(=O)NCC34CC5CC(CC(C5)C3)C4)cccc2n1 (stereo not shown) [Compound 160, N-(adamantan-1-ylmethyl)-2-(2-{[1-(methoxymethyl)pro-pyl]amino}-2-oxoethyl)imidazo[1,2-a]pyridine-5-carboxamide]
< 2000 nM	NC(=O)[C@H]1CCC[C@H]1NC(=O)Cc1cn2c(C(=O)NCC34CC5CC(CC(C5)C3)C4)cccc2n1 [Compound 161, N-(adamantan-1-ylmethyl)-2-(2-{[(1R,2S)-2-carbamoylcyclo-pentyl]amino}-2-oxoethyl)imidazo[1,2-a]pyridine-5-carboxamide]
< 2000 nM	O=C(Cc1cn2c(C(=O)NCC34CC5CC(CC(C5)C3)C4)cccc2n1)NN1CCOCC1 [Compound 162, N-(adamantan-1-ylmethyl)-2-[2-(morpholin-4-ylamino)-2-oxoethyl]imidazo[1,2-a]pyridine-5-carboxamide]
< 2000 nM	O=C(Cc1cn2c(C(=O)NCC34CC5CC(CC(C5)C3)C4)cccc2n1)NN1CCCCCC1 [Compound 163, N-(adamantan-1-ylmethyl)-2-[2-(azepan-1-ylamino)-2-oxoethyl]imidazo[1,2-a]pyridine-5-carboxamide]
< 2000 nM	CN(C)C(=O)Cc1cn2c(C(=O)NCC34CC5CC(CC(C5)C3)C4)cccc2n1 [Compound 165, N-(adamantan-1-ylmethyl)-2-[2-(dimethylamino)-2-oxoethyl]imidazo[1,2-a]pyridine-5-carboxamide]
< 2000 nM	CC(=O)N1CCN(C(=O)Cc2cn3c(C(=O)NCC45CC6CC(CC(C6)C4)C5)cccc3n2)CC1 [Compound 166, 2-[2-(4-acetylpiperazin-1-yl)-2-oxoethyl]-N-(adamantan-1-ylmethyl)imidazo[1,2-a]pyridine-5-carboxamide]
< 2000 nM	O=CN1CCN(C(=O)Cc2cn3c(C(=O)NCC45CC6CC(CC(C6)C4)C5)cccc3n2)CC1 [Compound 167, N-(adamantan-1-ylmethyl)-2-[2-(4-formylpiperazin-1-yl)-2-oxoethyl]imidazo[1,2-a]pyridine-5-carboxamide]
< 2000 nM	CCN(C)C(=O)Cc1cn2c(C(=O)NCC34CC5CC(CC(C5)C3)C4)cccc2n1 [Compound 168, N-(adamantan-1-ylmethyl)-2-{2-[ethyl(methyl)amino]-2-oxoethyl}imidazo[1,2-a]pyridine-5-carboxamide]

SMILES	IC50
CC(C)N1CCN(C(=O)Cc2cn3c(C(=O)NCC45CC6CC(CC(C6)C4)C5)cccc3n2)CC1 [Compound 164, N-(adamantan-1-ylmethyl)-2-[2-(4-isopropylpiperazin-1-yl)-2-oxoethyl]imidazo[1,2-a]pyridine-5-carboxamide]	< 2000 nM
CCN1CCN(C(=O)Cc2cn3c(C(=O)NCC45CC6CC(CC(C6)C4)C5)cccc3n2)CC1 [Compound 169, N-(adamantan-1-ylmethyl)-2-[2-(4-ethylpiperazin-1-yl)-2-oxoethyl]imidazo[1,2-a]pyridine-5-carboxamide]	< 2000 nM
